Source: PMC8989888, “Development of optimized drug-like small molecule inhibitors of the SARS-CoV-2 3CL protease for treatment of COVID-19” (Nature Communications, 2022)
Where “and” joins values, the source holds several entries; their conditions need not be identical. Equal values may be shown once. Read-outs that look alike come from different tables or passages of the source.

How the values were obtained:
SARS-CoV-2 3CL protease [1] = biological target: T1, SARS-CoV-2 3CL protease (Severe acute respiratory syndrome coronavirus 2, UniProt P0DTD1); assay: biochemical; conditions: for Normalized SARS-CoV-2 3CL protease activity: 0.2 µM protease with 50 µM tested compound; for Normalized SARS-CoV-2 3CL protease activity / % SARS-CoV-2 3CL activity: replicates
SARS-CoV-2 3CL protease [2] = biological target: T1, SARS-CoV-2 3CL protease; assay: cell-based
SARS-CoV-2 3CL protease [3] = biological target: T1, SARS-CoV-2 3CL protease; format: binding
human chymotrypsin = assay: Chymotrypsin activity assay (Panc-1 cell lysate); format: biochemical
SARS-CoV-2 = assay: microbe, parasite or virus in culture; format: cell-based
SARS-CoV-2 3CL protease [4] = biological target: T1, SARS-CoV-2 3CL protease; format: binding; remark: listed apart in the source
[5] = test system: Influenza A H1N1 (strain: California/07/2009); assay: microbe, parasite or virus in culture; format: cell-based; conditions: Influenza A virus, H1N1, MDCK, read-out: Influenza A (H1N1) MDCK EC50
[6] = 20 nM protease, log10[nM] 0.19382
[7] = 20 nM protease, log10[nM] 0.49485
[8] = 20 nM protease, log10[nM] 0.79588
[9] = 20 nM protease, log10[nM] 1.09691
[10] = 20 nM protease, log10[nM] 1.39794
[11] = 20 nM protease, log10[nM] 1.69897
[12] = 20 nM protease, log10[nM] 2.30103
[13] = 20 nM protease, log10[nM] 2.60206
[14] = 20 nM protease, log10[nM] 2.90309
[15] = 20 nM protease, log10[nM] -0.10721
[16] = 20 nM protease, log10[nM] -0.40824
[17] = 20 nM protease, read-out: SARS-CoV-2 3CLpro IC50

In the case of `CCn1nc(C)c(C(=O)Oc2cncc(Cl)c2)c1Cl` [Z65], the “Normalized SARS-CoV-2 3CL protease activity” value (SARS-CoV-2 3CL protease [1]) is reported as 0.223 and 0.2216 and 0.2302 and the “Absorbance (crystal violet), SARS-CoV-2 3CLpro” value (“Absorbance (crystal violet)” below) (SARS-CoV-2 3CL protease [2]) is reported as 0.1475 and 0.1384.
`O=C(Oc1cncc(Cl)c1)c1cccs1` [MAC-5576, reference compound] was tested, and the “binding to 3CL protease by mass spectrometry (in words)” value (SARS-CoV-2 3CL protease [3]) was “one-to-one complex”, the Normalized chymotrypsin activity (human chymotrypsin) was 1.078 and 0.9826 and 0.9946 and the “% SARS-CoV-2 inhibition” value (SARS-CoV-2) was -2%. The “EC50, inhibition of SARS-CoV-2 viral replication” value (SARS-CoV-2) was “did not”, the IC50 (SARS-CoV-2 3CL protease [1]; IC50) was 93 nM and the IC50 (SARS-CoV-2 3CL protease [1]; SARS-CoV-2 3CLpro IC50) was 10 nM. It also gave a binding stoichiometry (SARS-CoV-2 3CL protease [4]) of 1.2 ± 0.2.
`Cn1ncc(C(=O)Oc2cncc(Cl)c2)c1-n1cccc1` [Z26] was tested, and the “Normalized SARS-CoV-2 3CL protease activity” value (SARS-CoV-2 3CL protease [1]) was 0.2302 and 0.2702 and 0.2695 and the “Absorbance (crystal violet)” value (SARS-CoV-2 3CL protease [2]) was 0.1558 and 0.1505.
For `CC(=O)N1CCc2cc(C(=O)Oc3cncc(Cl)c3)ccc21` [Z21], the “Normalized SARS-CoV-2 3CL protease activity” value (SARS-CoV-2 3CL protease [1]) was 0.2321 and 0.2984 and the “Absorbance (crystal violet)” value (SARS-CoV-2 3CL protease [2]) was 0.1721 and 0.1614.
In the case of `Cc1ncc(C(=O)Oc2cncc(Br)c2)s1` [Z43], the “% SARS-CoV-2 3CL activity” value (SARS-CoV-2 3CL protease [1]; [6]) is reported as 81.5961% and 71.2676%, the “% SARS-CoV-2 3CL activity” value (SARS-CoV-2 3CL protease [1]; [7]) is reported as 59.9348% and 65.0704% and the “% SARS-CoV-2 3CL activity” value (SARS-CoV-2 3CL protease [1]; [8]) is reported as 59.9348% and 45.6338%. For the same compound, the “% SARS-CoV-2 3CL activity” value (SARS-CoV-2 3CL protease [1]; [9]) was 45.6026% and 45.2113%, the “% SARS-CoV-2 3CL activity” value (SARS-CoV-2 3CL protease [1]; [10]) was 33.0619% and 25.9155% and the “% SARS-CoV-2 3CL activity” value (SARS-CoV-2 3CL protease [1]; [11]) was 9.772% and 20%. For the same compound, the “% SARS-CoV-2 3CL activity” value (SARS-CoV-2 3CL protease [1]; 20 nM protease, log10[nM] 2) was -2.443% and 0.9859%, the “% SARS-CoV-2 3CL activity” value (SARS-CoV-2 3CL protease [1]; [12]) was -12.7036% and 7.042% and the “% SARS-CoV-2 3CL activity” value (SARS-CoV-2 3CL protease [1]; [13]) was -11.2378% and 5.775%. The “% SARS-CoV-2 3CL activity” value (SARS-CoV-2 3CL protease [1]; [14]) was 0%, the “% SARS-CoV-2 3CL activity” value (SARS-CoV-2 3CL protease [1]; [15]) was 77.6873% and 77.6056% and the “% SARS-CoV-2 3CL activity” value (SARS-CoV-2 3CL protease [1]; [16]) was 100%. The IC50 (SARS-CoV-2 3CL protease [1]; [17]) was 14 nM, the “Normalized SARS-CoV-2 3CL protease activity” value (SARS-CoV-2 3CL protease [1]) was 0.007869 and 0.001311 and 0.005246 and the “Absorbance (crystal violet)” value (SARS-CoV-2 3CL protease [2]) was 0.1361 and 0.1268.
For `NC(=O)c1ncn([C@@H]2O[C@H](CO)[C@@H](O)[C@H]2O)n1` [Ribavirin, reference compound], the EC50 [5] was 3.2 µM.
In the case of `O=C(Oc1cncc(Cl)c1)c1ccco1` [T71], the “% SARS-CoV-2 3CL activity” value (SARS-CoV-2 3CL protease [1]; [6]) is reported as 86.3659% and 89.8434%, the “% SARS-CoV-2 3CL activity” value (SARS-CoV-2 3CL protease [1]; [7]) is reported as 80.2845% and 76.3012% and the “% SARS-CoV-2 3CL activity” value (SARS-CoV-2 3CL protease [1]; [8]) is reported as 65.6694% and 65.2855%. For the same compound, the “% SARS-CoV-2 3CL activity” value (SARS-CoV-2 3CL protease [1]; [9]) was 47.7195% and 48.4083%, the “% SARS-CoV-2 3CL activity” value (SARS-CoV-2 3CL protease [1]; [10]) was 16.1844% and 18.9995% and the “% SARS-CoV-2 3CL activity” value (SARS-CoV-2 3CL protease [1]; [11]) was 0.4414% and 4.144%. The “% SARS-CoV-2 3CL activity” value (SARS-CoV-2 3CL protease [1]; 20 nM protease, log10[nM] 2) was -3.629% and 1.061%, the “% SARS-CoV-2 3CL activity” value (SARS-CoV-2 3CL protease [1]; [12]) was -2.6974% and 0.4042% and the “% SARS-CoV-2 3CL activity” value (SARS-CoV-2 3CL protease [1]; [13]) was -1.9127% and -0.758%. The “% SARS-CoV-2 3CL activity” value (SARS-CoV-2 3CL protease [1]; [14]) was 0%, the “% SARS-CoV-2 3CL activity” value (SARS-CoV-2 3CL protease [1]; [15]) was 95.0956% and 96.5639% and the “% SARS-CoV-2 3CL activity” value (SARS-CoV-2 3CL protease [1]; [16]) was 100%. The IC50 (SARS-CoV-2 3CL protease [1]; [17]) was 11 nM, the “Normalized SARS-CoV-2 3CL protease activity” value (SARS-CoV-2 3CL protease [1]) was 0.04328 and 0.01902 and 0.03148 and the “Absorbance (crystal violet)” value (SARS-CoV-2 3CL protease [2]) was 0.16 and 0.1636.
`O=C(Oc1cncc(Br)c1)c1cc2c([nH]c1=O)CCCC2` [Z61] was tested, and the “Normalized SARS-CoV-2 3CL protease activity” value (SARS-CoV-2 3CL protease [1]) was 0.4525 and 0.1738 and 0.3423 and the “Absorbance (crystal violet)” value (SARS-CoV-2 3CL protease [2]) was 0.1155 and 0.1264.
